Results published in US10392368B2, “Pyrazolo and triazolo bicyclic compounds as JAK kinase inhibitors” (THERAVANCE BIOPHARMA R&D IP, LLC, priority 2017, dated 2019).
Where two headings read alike, the source gives them in different places.

Tests used:
JAK2 = molecular target: T1, JAK2 (Homo sapiens, UniProt O60674); test: Biochemical JAK2 kinase assay (LanthaScreen); details: for Ki: read-out: JAK 2 (pKi) (converted)
T1 construct: GST; purchased Life Technologies
Description: (§1) A panel of four LanthaScreen JAK biochemical assays (JAK1, 2, 3 and Tyk2) were carried in a common kinase reaction buffer (50 mM HEPES, pH 7.5, 0.01% Brij-35, 10 mM MgCl2, and 1 mM EGTA). Recombinant GST-tagged JAK enzymes and a GFP-tagged STAT1 peptide substrate were obtained from Life Technologies.
(§2) Serially or discretely diluted compounds were pre-incubated with each of the four JAK enzymes and the substrate in white 384-well microplates (Corning) at ambient temperature for 1 h. ATP was subsequently added to initiate the kinase reactions in 10 μL total volume, with 1% DMSO. […] Kinase reactions were allowed to proceed for 1 hour at ambient temperature before a 10 μL preparation of EDTA (10 mM final concentration) and Tb-anti-pSTAT1 (pTyr701) antibody (Life Technologies, 2 nM final concentration) in TR-FRET dilution buffer (Life Technologies) was added. The plates were allowed to incubate at ambient temperature for 1 h before being read on the EnVision reader (Perkin Elmer).
(§3) For dose-response analysis, percent inhibition data were plotted vs. compound concentrations, and IC50 values were determined from a 4-parameter robust fit model with the Prism software (GraphPad Software). Results were expressed as pIC50 (negative logarithm of IC50) and subsequently converted to pKi (negative logarithm of dissociation constant, Ki) using the Cheng-Prusoff equation.

JAK3 = molecular target: T2, JAK3 (Homo sapiens, UniProt P52333); test: Biochemical JAK3 kinase assay (LanthaScreen); design: GST; purchased Life Technologies
T2 sequence (P52333 1-1124): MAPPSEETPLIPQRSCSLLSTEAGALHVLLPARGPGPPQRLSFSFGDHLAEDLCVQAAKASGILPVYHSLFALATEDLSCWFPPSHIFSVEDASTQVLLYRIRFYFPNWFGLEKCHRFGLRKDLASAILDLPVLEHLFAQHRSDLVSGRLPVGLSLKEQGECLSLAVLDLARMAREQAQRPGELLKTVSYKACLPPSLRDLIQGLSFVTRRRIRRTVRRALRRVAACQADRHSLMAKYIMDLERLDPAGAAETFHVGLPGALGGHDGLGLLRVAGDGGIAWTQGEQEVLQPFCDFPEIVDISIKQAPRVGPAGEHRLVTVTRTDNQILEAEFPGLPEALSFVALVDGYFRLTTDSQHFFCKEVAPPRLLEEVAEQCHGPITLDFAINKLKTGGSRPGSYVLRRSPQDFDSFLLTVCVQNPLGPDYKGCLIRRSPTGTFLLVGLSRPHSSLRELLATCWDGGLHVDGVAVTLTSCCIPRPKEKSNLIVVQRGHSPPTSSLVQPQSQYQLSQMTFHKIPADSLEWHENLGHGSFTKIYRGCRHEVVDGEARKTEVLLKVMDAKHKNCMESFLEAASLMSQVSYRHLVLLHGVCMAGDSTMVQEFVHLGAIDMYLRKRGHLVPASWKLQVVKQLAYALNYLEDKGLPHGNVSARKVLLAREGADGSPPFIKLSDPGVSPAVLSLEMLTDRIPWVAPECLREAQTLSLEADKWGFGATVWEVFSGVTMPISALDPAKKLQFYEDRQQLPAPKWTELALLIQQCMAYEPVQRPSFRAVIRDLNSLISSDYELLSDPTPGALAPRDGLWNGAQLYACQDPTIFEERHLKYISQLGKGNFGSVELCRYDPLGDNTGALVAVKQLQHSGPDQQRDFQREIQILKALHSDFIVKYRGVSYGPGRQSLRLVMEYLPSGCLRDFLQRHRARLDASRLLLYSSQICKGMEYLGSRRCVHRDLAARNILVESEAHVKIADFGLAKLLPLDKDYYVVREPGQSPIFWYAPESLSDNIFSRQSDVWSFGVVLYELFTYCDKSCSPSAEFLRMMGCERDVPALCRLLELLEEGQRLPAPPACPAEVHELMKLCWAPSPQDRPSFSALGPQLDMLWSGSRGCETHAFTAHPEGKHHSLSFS
Outline: (§4)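 Recombinant GST-tagged JAK enzymes with GFP-STAT1 peptide substrate in 50 mM HEPES pH 7.5, 10 mM MgCl2, 1 mM EGTA, 0.01% Brij-35; compounds pre-incubated 1 h, then ATP added, 1 h reaction at ambient temperature. TR-FRET (Tb-anti-pSTAT1 pTyr701, 520/495 nm) after EDTA stop; IC50 by 4-parameter fit, converted to pKi via Cheng-Prusoff.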

Tyk2 = molecular target: T3, Tyk2 (Homo sapiens, UniProt P29597); test: Biochemical Tyk2 kinase assay (LanthaScreen); details: read-out: Tyk 2 (pKi) (converted)
T3 construct: GST; purchased Life Technologies
T3 sequence (P29597 whole entry): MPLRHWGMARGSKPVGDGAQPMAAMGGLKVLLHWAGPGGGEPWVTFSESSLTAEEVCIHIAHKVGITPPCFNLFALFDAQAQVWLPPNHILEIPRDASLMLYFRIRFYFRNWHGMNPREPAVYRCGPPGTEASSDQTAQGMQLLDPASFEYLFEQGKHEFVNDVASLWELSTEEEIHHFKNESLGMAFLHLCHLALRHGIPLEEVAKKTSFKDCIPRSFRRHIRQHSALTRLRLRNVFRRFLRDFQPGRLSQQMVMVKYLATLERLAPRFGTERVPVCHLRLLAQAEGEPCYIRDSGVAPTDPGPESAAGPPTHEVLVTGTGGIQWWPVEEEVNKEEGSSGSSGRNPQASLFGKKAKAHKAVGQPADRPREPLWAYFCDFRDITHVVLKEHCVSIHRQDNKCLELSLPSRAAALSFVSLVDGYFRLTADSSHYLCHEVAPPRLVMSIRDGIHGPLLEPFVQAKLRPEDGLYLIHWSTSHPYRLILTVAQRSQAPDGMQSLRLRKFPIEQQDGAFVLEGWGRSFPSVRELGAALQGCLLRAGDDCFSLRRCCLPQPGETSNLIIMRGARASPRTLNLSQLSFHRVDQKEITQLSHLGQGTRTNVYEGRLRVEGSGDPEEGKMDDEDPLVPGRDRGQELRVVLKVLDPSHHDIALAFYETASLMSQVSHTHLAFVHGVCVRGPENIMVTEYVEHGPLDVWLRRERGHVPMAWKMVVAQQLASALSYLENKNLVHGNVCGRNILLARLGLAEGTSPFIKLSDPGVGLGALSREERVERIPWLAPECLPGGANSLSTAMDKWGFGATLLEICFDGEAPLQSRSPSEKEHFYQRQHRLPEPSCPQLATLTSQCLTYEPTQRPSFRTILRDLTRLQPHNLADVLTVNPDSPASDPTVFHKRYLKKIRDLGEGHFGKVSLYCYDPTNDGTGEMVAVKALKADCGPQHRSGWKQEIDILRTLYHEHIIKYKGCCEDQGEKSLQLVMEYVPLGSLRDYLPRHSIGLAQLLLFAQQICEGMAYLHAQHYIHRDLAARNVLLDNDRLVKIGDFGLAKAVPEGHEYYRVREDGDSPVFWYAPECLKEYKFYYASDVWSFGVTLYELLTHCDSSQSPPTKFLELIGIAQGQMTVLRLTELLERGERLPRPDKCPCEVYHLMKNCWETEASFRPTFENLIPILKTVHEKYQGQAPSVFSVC
Description: as §1
as §2, with “Elmer). Emission ratio signals (520 nm/495 nm) were recorded and utilized to calculate the percent inhibition values based on DMSO and background controls.” for “Elmer).”
as §3

JAK1 = molecular target: T4, JAK1 (Homo sapiens, UniProt P23458); test: Biochemical JAK1 kinase assay (LanthaScreen); details: for Ki: read-out: JAK 1 (pKi) (converted)
T4 construct: GST; purchased Life Technologies
T4 sequence (P23458 whole entry): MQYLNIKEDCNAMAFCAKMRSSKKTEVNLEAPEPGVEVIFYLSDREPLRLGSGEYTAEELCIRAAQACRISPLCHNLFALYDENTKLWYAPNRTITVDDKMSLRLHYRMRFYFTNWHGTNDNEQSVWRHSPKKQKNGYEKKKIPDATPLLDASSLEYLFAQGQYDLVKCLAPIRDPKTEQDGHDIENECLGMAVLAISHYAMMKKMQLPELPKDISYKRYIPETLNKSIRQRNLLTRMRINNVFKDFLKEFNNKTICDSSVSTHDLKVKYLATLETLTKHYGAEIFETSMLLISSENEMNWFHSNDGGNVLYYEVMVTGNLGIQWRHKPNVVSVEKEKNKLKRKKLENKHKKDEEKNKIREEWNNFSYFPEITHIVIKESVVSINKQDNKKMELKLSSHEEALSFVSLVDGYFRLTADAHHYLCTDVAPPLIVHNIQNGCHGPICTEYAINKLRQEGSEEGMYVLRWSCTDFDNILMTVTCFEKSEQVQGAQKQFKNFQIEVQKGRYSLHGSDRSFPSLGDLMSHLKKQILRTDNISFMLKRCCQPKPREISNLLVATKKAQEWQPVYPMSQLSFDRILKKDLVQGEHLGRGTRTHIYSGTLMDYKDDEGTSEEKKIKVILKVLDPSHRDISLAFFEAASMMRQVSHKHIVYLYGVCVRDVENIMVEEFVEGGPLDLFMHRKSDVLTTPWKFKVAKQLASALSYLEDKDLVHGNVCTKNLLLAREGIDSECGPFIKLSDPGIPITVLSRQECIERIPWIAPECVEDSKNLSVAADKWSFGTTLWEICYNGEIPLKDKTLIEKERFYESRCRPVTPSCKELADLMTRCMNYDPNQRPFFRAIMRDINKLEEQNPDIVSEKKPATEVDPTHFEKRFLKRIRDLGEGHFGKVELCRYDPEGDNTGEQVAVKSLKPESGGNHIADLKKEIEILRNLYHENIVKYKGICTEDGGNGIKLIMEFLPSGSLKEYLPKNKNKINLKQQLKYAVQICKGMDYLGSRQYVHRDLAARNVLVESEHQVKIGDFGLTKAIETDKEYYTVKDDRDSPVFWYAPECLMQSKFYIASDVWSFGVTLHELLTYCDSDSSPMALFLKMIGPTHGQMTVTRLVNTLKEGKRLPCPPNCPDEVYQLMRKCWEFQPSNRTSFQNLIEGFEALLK
Outline: as §4

[1] = tested on: IL-2 stimulated pSTAT5 in Tall-1 T cells; test: Cellular JAK3 potency assay: inhibition of IL-2 stimulated pSTAT5 in Tall-1 T cells; format: cell-based, human; details: for IC50: Homo sapiens, read-out: Tall-1 (pIC50) (converted); for Tall-1 (pIC50): IL-2 stimulated pSTAT5, Tall-1 T cells
Outline: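 Tall-1 human T cells (45,000/well) in phenol red-free DMEM with 10% FBS were preincubated with compound 1 h at 37 °C, then stimulated with IL-2 (final 300 ng/ml) for 30 min. Lysate pSTAT5 read by AlphaLisa; IC50 from inhibition curves, reported as pIC50 (mean±SD).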

[2] = read-out: JAK 3 (pKi) (converted)
[3] = selectivity: difference of pKi JAK3 and pKi JAK1
[4] = TALL-1, IL-2 stimulated pSTAT5 in Tall-1 T cells
[5] = selectivity JAK3 over JAK1, difference of pKi
[6] = TALL-1, IL-2 stimulated pSTAT5, Tall-1 T cells

T1 sequence (O60674 whole entry): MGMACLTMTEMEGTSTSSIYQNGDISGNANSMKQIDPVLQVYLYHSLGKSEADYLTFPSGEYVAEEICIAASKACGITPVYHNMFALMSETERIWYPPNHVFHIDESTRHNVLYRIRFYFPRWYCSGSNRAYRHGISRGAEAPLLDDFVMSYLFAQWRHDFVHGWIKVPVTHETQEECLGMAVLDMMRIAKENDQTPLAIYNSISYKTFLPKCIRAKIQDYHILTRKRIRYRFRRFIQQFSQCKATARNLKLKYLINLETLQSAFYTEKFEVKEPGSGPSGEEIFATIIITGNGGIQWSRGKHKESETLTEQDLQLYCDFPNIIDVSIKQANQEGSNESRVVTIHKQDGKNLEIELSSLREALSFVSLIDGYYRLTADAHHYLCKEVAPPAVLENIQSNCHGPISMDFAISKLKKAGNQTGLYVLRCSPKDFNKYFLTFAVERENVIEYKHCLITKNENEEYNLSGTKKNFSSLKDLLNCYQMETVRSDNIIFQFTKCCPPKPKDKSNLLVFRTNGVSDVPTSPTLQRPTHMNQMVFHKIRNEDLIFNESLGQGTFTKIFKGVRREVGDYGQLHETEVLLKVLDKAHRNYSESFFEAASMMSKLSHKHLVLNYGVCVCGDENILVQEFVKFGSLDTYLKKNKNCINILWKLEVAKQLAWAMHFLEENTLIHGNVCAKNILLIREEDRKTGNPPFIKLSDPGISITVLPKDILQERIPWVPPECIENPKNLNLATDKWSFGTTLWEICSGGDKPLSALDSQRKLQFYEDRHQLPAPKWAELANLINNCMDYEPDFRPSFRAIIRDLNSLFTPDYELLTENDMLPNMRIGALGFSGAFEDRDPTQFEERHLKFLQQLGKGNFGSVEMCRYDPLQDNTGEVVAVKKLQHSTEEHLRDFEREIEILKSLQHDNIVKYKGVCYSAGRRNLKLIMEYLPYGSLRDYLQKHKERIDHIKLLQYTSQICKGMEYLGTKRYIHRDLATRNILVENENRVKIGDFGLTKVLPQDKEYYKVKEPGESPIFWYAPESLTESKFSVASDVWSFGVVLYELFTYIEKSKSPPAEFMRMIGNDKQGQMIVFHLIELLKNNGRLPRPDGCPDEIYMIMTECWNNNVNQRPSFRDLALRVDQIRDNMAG

| Structure (SMILES) | Ki (JAK3; [2]) [nM] | JAK3 (pKi)-JAK1 (pKi) (JAK3; [3]) | Ki (JAK1) [nM] | JAK 3 (pKi) (JAK3) | JAK3 (pKi)-JAK1 (pKi) (JAK3; [5]) | JAK 1 (pKi) (JAK1) | Tall-1 (pIC50) [1] | IC50 [1, 6] [nM] | also measured |
| --- | --- | --- | --- | --- | --- | --- | --- | --- | --- |
| CN(C)C/C=C/C(=O)N1CC[C@H](Oc2cc(-c3ccc(O)cc3)cc3[nH]ncc23)C1 [Compound 1-1] | 0.1 to 1 | A (a value of 3 or above) | > 100 | – | – | – | – | – | Ki (JAK2): 10 to 100 nM; Ki (Tyk2): > 100 nM |
| C=CC(=O)N1CC[C@H](Oc2cc(-c3ccc(O)cc3)cc3[nH]ncc23)C1 [Compound 1-2] | < 0.1 | A (a value of 3 or above) | > 100 | – | – | – | – | – | Ki (JAK2): 10 to 100 nM; Ki (Tyk2): > 100 nM; IC50 [1, 4]: < 31.6 nM |
| C=CC(=O)N1CC(C(C)Oc2nc(-c3ccc(O)cc3)nc3[nH]ncc23)C1 (centres unmarked) [Compound 3-78] | – | A (a value of 3 or above) | – | B (a pKi value between 9 and 10 (Ki between 1 nM and 0.1 nM)) | – | – | – | – | JAK 2 (pKi) (JAK2): E (a pKi value of 7 or below (Ki of 100 nM or above)) |
| CN1CCC[C@@H]1/C=C/C(=O)N1CC[C@H](Oc2cc(-c3ccc(O)cc3)cc3[nH]ncc23)C1 [Compound 15, (E)-1-((S)-3-((6-(4-hydroxyphenyl)-1H-indazol-4-yl)oxy)pyrrolidin-1-yl)-3-((R)-1-methylpyrrolidin-2-yl)prop-2-en-1-one] | 0.1 to 1 | A (a value of 3 or above) | > 100 | – | – | – | – | – | IC50 [1, 4]: 200 to 1000 nM |
| CN(C)C/C=C/C(=O)N1CC2(CC(Oc3cc(-c4ccc(O)c(Cl)c4)cc4[nH]ncc34)C2)C1 [Compound 15-4] | – | – | – | A (a pKi value≥10 (Ki≤0.1 nM)) | A (a value of 3 or above) | E (a pKi value of 7 or below (Ki of 100 nM or above)) | B (a pIC50 value between 6.7 (included) and 7.5 (IC50 between 200 nM and 32 nM)) | – | – |
| CN(C)C/C=C/C(=O)N1CC2(CC(Oc3nc(-c4ccc(O)cc4)cc4[nH]ncc34)C2)C1 [Compound 15-6] | – | – | – | A (a pKi value≥10 (Ki≤0.1 nM)) | B (a value of 2.3 to 3) | D (a pKi value between 7 and 8 (Ki between 100 nM and 10 nM)) | C (a pIC50 value between 6 and 6.7 (IC50 between 1 μM and 200 nM)) | – | – |
| C=CC(=O)N1CC2(CC(Oc3cc(-c4ccc(O)cc4)nc4[nH]ncc34)C2)C1 [Compound 15-8] | – | – | – | B (a pKi value between 9 and 10 (Ki between 1 nM and 0.1 nM)) | B (a value of 2.3 to 3) | D (a pKi value between 7 and 8 (Ki between 100 nM and 10 nM)) | B (a pIC50 value between 6.7 (included) and 7.5 (IC50 between 200 nM and 32 nM)) | – | – |
| C=C(CN(C)C)C(=O)N1CC[C@H](Oc2cc(-c3ccc(O)cc3)cc3[nH]ncc23)C1 [Compound 16, (S)-2-((dimethylamino)methyl)-1-(3-((6-(4-hydroxyphenyl)-1H-indazol-4-yl)oxy)pyrrolidin-1-yl)prop-2-en-1-one] | 0.1 to 1 | A (a value of 3 or above) | > 100 | – | – | – | – | – | IC50 [1, 4]: 31.6 to 200 nM |
| C=CC(=O)N1CC(OCc2cc(-c3ccc(O)cc3)nc3[nH]ncc23)C1 [Compound 16-4] | – | – | – | B (a pKi value between 9 and 10 (Ki between 1 nM and 0.1 nM)) | A (a value of 3 or above) | E (a pKi value of 7 or below (Ki of 100 nM or above)) | B (a pIC50 value between 6.7 (included) and 7.5 (IC50 between 200 nM and 32 nM)) | – | – |
| C#CC(=O)N1CC[C@H](Oc2cc(-c3ccc(O)cc3)cc3[nH]ncc23)C1 [Compound 17, (S)-1-(3-((6-(4-hydroxyphenyl)-1H-indazol-4-yl)oxy)pyrrolidin-1-yl)prop-2-yn-1-one] | – | B (a value of 2.3 to 3) | > 100 | – | – | – | – | – | Ki (JAK3; JAK 3 (pKi)): 0.1 to 1 nM; IC50 [1, 4]: 200 to 1000 nM |
| C=CC(=O)N1CCC(Oc2cc(-c3ccc(O)cc3)cc3[nH]nnc23)C1 (centres unmarked) [Compound 17-2] | – | – | – | A (a pKi value≥10 (Ki≤0.1 nM)) | A (a value of 3 or above) | E (a pKi value of 7 or below (Ki of 100 nM or above)) | C (a pIC50 value between 6 and 6.7 (IC50 between 1 μM and 200 nM)) | – | – |
| CN(C)C/C=C/C(=O)N1CC(COc2cc(-c3c(F)cc(O)cc3F)cc3[nH]ncc23)C1 [Compound 18-2] | < 0.1 | – | 10 to 100 | – | C (a value of 1.8 to 2.3) | – | – | < 31.6 | – |
| Cc1n[nH]c2cc(-c3ccc(O)cc3)cc(OCC3CN(C(=O)/C=C/CN(C)C)C3)c12 [Compound 18-4] | < 0.1 | – | 10 to 100 | – | B (a value of 2.3 to 3) | – | – | 31.6 to 200 | – |
| C=CC(=O)N1CC(COc2cc(-c3ccc(O)cc3)cc3[nH]nc(C)c23)C1 [Compound 18-5] | 0.1 to 1 | – | 10 to 100 | – | B (a value of 2.3 to 3) | – | – | < 31.6 | – |
| C=CC(=O)N1CC(COc2cc(-c3ccc(O)c(Cl)c3)cc3[nH]nc(C)c23)C1 [Compound 18-6] | 0.1 to 1 | – | 10 to 100 | – | B (a value of 2.3 to 3) | – | – | < 31.6 | – |
| C=CC(=O)N1CC(COc2cc(-c3ccc(O)c(F)c3)cc3[nH]nc(C)c23)C1 [Compound 18-7] | 0.1 to 1 | – | 10 to 100 | – | C (a value of 1.8 to 2.3) | – | – | < 31.6 | – |
| C=CC(=O)N1CC(COc2cc(-c3ccc(O)cc3)cc3[nH]nc(N(C)C)c23)C1 [Compound 18-11] | 0.1 to 1 | – | > 100 | – | A (a value of 3 or above) | – | – | 200 to 1000 | – |
| C=CC(=O)N1CC(COc2cc(-c3ccc(O)cc3)cc3[nH]nc(Cl)c23)C1 [Compound 18-14] | – | – | – | B (a pKi value between 9 and 10 (Ki between 1 nM and 0.1 nM)) | A (a value of 3 or above) | E (a pKi value of 7 or below (Ki of 100 nM or above)) | B (a pIC50 value between 6.7 (included) and 7.5 (IC50 between 200 nM and 32 nM)) | – | – |
